Reference: US20020173491A1, “DAPD combination therapy with inosine monophosphate dehydrogenase inhibitor” (priority 2000, published 2002)
Where two headings read alike, the source gives them in different places.

Tests used:
[1] = test system: xxLAI strain of HIV-1; assay: microbe, parasite or virus in culture; format: cell-based; conditions: for Fold difference in EC50, 0.1 μM MPA: control vs with 0.1 μM MPA
Protocol: Triplicate samples of compound were tested. MT2 cells were infected with xxLAI at a multiplicity of infection (MOI) of 0.03 for 3 hours at 37° C. in 5% CO2. The infected cells were plated at 3.0×10^4/well into a 96 well plated containing drug dilutions and incubated for 5 days at 37° C. in CO2. […] This method has been modified into a susceptibility assay and has been used in a variety of in vitro antiviral tests and is readily adaptable to any system with a lytic virus (Weislow, O. S., et. al. 1989). Using the absorption values of the cell controls as 100% protection and no drug, virus infected cells as 0% protection, a dose response curve is generated by plotting % protection on the Y axis and drug concentration on the X axis. From this curve EC50 values were determined.
Assays were performed in the MT2 cell line as described above in the XXT sensitivity assay section.
MPA was tested for activity against the xxLAI strain of HIV-1 in the laboratory adapted cell line MT2. Dilutions of MPA were made in cell culture media in a 96 well plate; the highest concentration tested was 1 μM. Triplicate samples of compound were tested. MT2 cells were infected with xxLAI at a multiplicity of infection (MOI) of 0.03 for 3 hours at 37° C. in 5% CO2. The infected cells were plated at 3.0×10^4/well into a 96 well plated containing drug dilutions and incubated for 5 days at 37° C. in CO2. The antiviral activity of MPA was determined using the XTT assay described above. This method has been modified into a susceptibility assay and has been used in a variety of in vitro antiviral tests and is readily adaptable to any system with a lytic virus (Weislow, O. S., et. al. 1989). Using the absorption values of the cell controls as 100% protection and no drug, virus infected cells as 0% protection, a dose response curve is generated by plotting % protection on the Y axis and drug concentration on the X axis. From this curve EC50 values were determined.
The concentrations of MPA used were 1, 0.5, 0.25, 0.1, and 0.01 μM. Assays were performed in the MT2 cell line as described in section 3.1.

[2] = test system: xxLAI strain of HIV-1; assay: microbe, parasite or virus in culture; format: cell-based; conditions: for Fold difference in EC50, 0.1 μM MPA: control vs with 0.1 μM MPA; for Fold difference in EC50, 0.25 μM MPA: control vs with 0.25 μM MPA
Protocol: In this assay, cell supernatants were incubated on microelisa wells coated with antibodies to HIV-1 p24 core antigen. Subsequently, anti-HIV-1 conjugate labeled with horseradish peroxidase was added. The labeled antibody bound to the solid phase antibody/antigen complexes previously formed. Addition of the tetramethylbenzidine substrate results in blue color formation. The color turned yellow when the reaction is stopped. The plates were then analyzed on a plate reader set at 490 nm. The absorbance is a direct measurement of the amount of HIV-1 produced in each well and a decrease in color indicates decreased viral production. […] PBMC were obtained from HIV-1 negative donors by banding on Ficoll gradients, stimulated with phytohemaglutinin (PHAP) for 48 hours prior to infection with HIV-1, and infected with virus for 4 hours at 37° C. at a MOI of 0.001. […] Plates were incubated for 3 days at 37° C. The concentration of virus in each well was determined using the NEN p24 assay. Using the absorption values of the cell controls as 100% protection and drug free, virus infected cells as 0% protection, a dose response curve is generated by plotting percent protection on the Y axis and drug concentration on the X axis. From this curve, EC50 values were determined.
Compound dilutions and assay conditions were as described above.
MPA was also tested for activity against the xxLAI strain of HIV-1 in PBMCs using a p24 based Elisa assay. In this assay, cell supernatants are incubated on microelisa wells coated with antibodies to HIV-1 p24 core antigen. Subsequently, anti-HIV-1 conjugate labeled with horse radish peroxidase is added. The labeled antibody binds to the solid phase antibody/antigen complexes previously formed. Addition of the tetramethylbenzidine substrate results in blue color formation. The color turns yellow when the reaction is stopped. The plates are then analyzed on a plate reader set at 490 nm. The absorbance is a direct measurement of the amount of HIV-1 produced in each well and a decrease in color indicates decreased viral production. Dilutions of MPA were made in cell culture media in a 96 well plate, the highest concentration of MPA tested was 1 μM. PBMC were obtained from HIV-1 negative donors by banding on Ficoll gradients, stimulated with phytohemaglutinin (PHAP) for 48 hours prior to infection with HIV-1, and infected with virus for 4 hours at 37° C. at a MOI of 0.001. Infected cells were seeded into 96 well plates containing 4-fold serial dilutions of MPA. Plates were incubated for 3 days at 37° C. The concentration of virus in each well was determined using the NEN p24 assay. Using the absorption values of the cell controls as 100% protection and drug free, virus infected cells as 0% protection, a dose response curve is generated by plotting % protection on the Y axis and drug concentration on the X axis. From this curve EC50 values were determined.
Compound dilutions and assay conditions were as described above. The concentrations of MPA used were 1, 0.5, 0.25, 0.1, and 0.01 μM.

[3] = PBMC, all the concentrations tested, with 0.25 μM MPA
[4] = read-out: Mean EC50, 0.01 μM MPA, PMBCs, with 0.01 μM MPA
[5] = read-out: Mean EC50, 0.1 μM MPA, PMBCs, with 0.1 μM MPA

`Nc1nc(=O)n([C@@H]2CS[C@H](CO)O2)cc1F` [FTC] was tested, and the “Fold difference in EC50, 0.1 μM MPA” value ([1]; MT2 cells) was 1 fold, the EC50 ([1]; MT2 cells, no MPA, read-out: Mean EC50, Control) was 600 nM and the EC50 ([1]; MT2 cells, with 0.25 μM MPA, read-out: Mean EC50, 0.25 μM MPA) was 400 nM. The EC50 ([1]; read-out: Mean EC50, 0.01 μM MPA, MT2 cells, with 0.01 μM MPA) was 620 nM, the EC50 ([1]; read-out: Mean EC50, 0.1 μM MPA, MT2 cells, with 0.1 μM MPA) was 620 nM and the “effect of addition of 0.25 μM MPA on anti-HIV activity in PBMCs” value [2, 3] was “little effect”. The “Fold difference in EC50, 0.1 μM MPA” value ([2]; PBMC) was 1.2 fold, the “Fold difference in EC50, 0.25 μM MPA” value ([2]; PBMC) was 1.8 fold and the EC50 ([2]; PMBCs, no MPA, read-out: Mean EC50, Control) was 11 nM. The EC50 ([2]; PMBCs, with 0.25 μM MPA, read-out: Mean EC50, 0.25 μM MPA) was 6 nM, the EC50 [2, 4] was 8 nM and the EC50 [2, 5] was 9.3 nM.

In the case of `Nc1nc(NC2CC2)c2ncn([C@H]3C=C[C@@H](CO)C3)c2n1` [Abacavir], the EC50 ([1]; Human immunodeficiency virus 1, MT2, read-out: Mean EC50, Control, MT2 cells, no MPA) is reported as 2400 nM, the EC50 ([1]; Human immunodeficiency virus 1, MT2, read-out: Mean EC50, Control, MT2 cells, no RBV) is reported as 4700 nM and the “fold difference in the apparent EC50 on addition of RBV” value ([1]; MT2 cells, addition of RBV) is reported as “less than 2 fold”. For the same compound, the “Fold difference in EC50, 0.1 μM MPA” value ([1]; MT2 cells) was 1 fold, the “Fold difference in EC50, 0.25 μM MPA” value ([1]; MT2 cells, control vs with 0.25 μM MPA (fold decrease)) was 1.7 fold and the “Fold difference in EC50, 5 μM RBV” value ([1]; MT2 cells, control vs with 5 μM RBV) was 0.68 fold. The “Fold difference in EC50, 10 μM RBV” value ([1]; MT2 cells, control vs with 10 μM RBV) was 0.73 fold, the EC50 ([1]; read-out: Mean EC50, 0.25 μM MPA, MT2 cells, with 0.25 μM MPA) was 1400 nM and the EC50 ([1]; read-out: Mean EC50, 5 μM RBV, MT2 cells, with 5 μM RBV) was 6900 nM. The EC50 ([1]; read-out: Mean EC50, 10 μM RBV, MT2 cells, with 10 μM RBV) was 6400 nM, the EC50 ([1]; read-out: Mean EC50, 20 μM RBV, MT2 cells, with 20 μM RBV) was 5700 nM and the EC50 ([2]; Human immunodeficiency virus 1, PBMC, read-out: Mean EC50, Control, PMBCs, no MPA) was 1200 nM. For the same compound, the EC50 ([2]; Human immunodeficiency virus 1, PBMC, read-out: Mean EC50, Control, PMBCs, no RBV) was 540 nM, the “effect of addition of 0.25 μM MPA on anti-HIV activity in PBMCs” value [2, 3] was “completely inhibited HIV replication” and the “effect of addition of 20 μM RBV on anti-HIV activity in PBMCs” value ([2]; PBMC, all the concentrations tested, with 20 μM RBV) was “completely inhibited HIV replication”. For the same compound, the “Fold difference in EC50, 0.1 μM MPA” value ([2]; PBMC) was 3.2 fold, the “Fold difference in EC50, 0.25 μM MPA” value ([2]; PBMC) was greater than 50 fold and the “Fold difference in EC50, 5 μM RBV” value ([2]; PBMC, control vs with 5 μM RBV) was 4.9 fold. For the same compound, the “Fold difference in EC50, 10 μM RBV” value ([2]; PBMC, control vs with 10 μM RBV) was 18 fold, the “Fold difference in EC50, 20 μM RBV” value ([2]; PBMC, control vs with 20 μM RBV) was greater than 18 fold and the EC50 [2, 4] was 1100 nM. The EC50 [2, 5] was 380 nM, the EC50 ([2]; read-out: Mean EC50, 0.25 μM MPA, PMBCs, with 0.25 μM MPA) was less than 0.5 nM and the EC50 ([2]; read-out: Mean EC50, 1 μM RBV, PMBCs, with 1 μM RBV) was 200 nM. For the same compound, the EC50 ([2]; read-out: Mean EC50, 5 μM RBV, PMBCs, with 5 μM RBV) was 110 nM, the EC50 ([2]; read-out: Mean EC50, 10 μM RBV, PMBCs, with 10 μM RBV) was 30 nM and the EC50 ([2]; read-out: Mean EC50, 20 μM RBV, PMBCs, with 20 μM RBV) was less than 30 nM.
